Converted amounts (≈) assume the structure as drawn.
What was measured:
S. aureus ATCC 13709 [1] = assay: Antibacterial susceptibility (MIC) in the presence of serum; assay type: cell-based; conditions: for MIC: Staphylococcus aureus, ATCC13709, 18 h
[2] = tested on: S. aureus ATCC 13709 Novobiocin resistant mutant (bone infection); assay: Prophylactic efficacy in rat model of S. aureus bone infection; assay type: in vivo; conditions: for Prophylactic effect (in words): rat bone infection, doses and times of Table 3, t-test p<0.05; for Measured bacterial titer: rat tibia 24 h postinfection
[3] = tested on: E. coli LBB925 (tolC mutant); assay: Antibacterial susceptibility (MIC), NCCLS broth microdilution; assay type: cell-based; conditions: for Minimum inhibitory concentration, E. coli LBB925: tolC mutant
[4] = tested on: S. aureus ATCC 43300 (Fluoroquinolone sensitive MRSA); assay: as above; assay type: cell-based
Method in brief: (§1)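 Two-fold serial dilutions in DMSO tested in cation-adjusted Mueller Hinton broth per NCCLS M26-A, 5×10^5 c.f.u./mL inoculum, 1.25% final DMSO, duplicates.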

S. aureus ATCC 13709 [5] = assay: as above; assay type: cell-based; conditions: for Antibacterial activity (in words, summary of Table 1): summary over the strains of Table 1
Method in brief: as §1

S. aureus RN4220 = assay: as above; assay type: cell-based; conditions: CAMHB, 37° C., 18 h
Method in brief: as §1

[6] = tested on: S. aureus BK85 (Fluoroquinolone resistant MRSA); assay: as above; assay type: cell-based
Method in brief: as §1

[7] = Regeneration of drug from bone powder-bound prodrug; assay type: in vitro ADME; conditions: for % Conversion of bone-bound prodrug to parent drug: 24 h incubation, 37° C.; for Impact of the medium on the rate of regeneration of parent drug (in words): serum compared to PBS
[8] = tested on: S. aureus ATCC 13709 Novobiocin and Rifampicin resistant variant; assay: microbe, parasite or virus in culture; assay type: cell-based; conditions: for Minimum inhibitory concentration, S. aureus ATCC 13709 variant: Novobiocin and Rifampicin resistant variant
Method in brief: as §1

[9] = single dose 11 mg/kg parent drug equivalent, 3 days prior to infection

With “3-(((4-(2-(3-((bisphosphonomethyl)carbamoyl)propanoyloxy)ethyl)-1-piperazinyl)imino)methyl)rifamycin [Compound 11]” the “Impact of serum on the MICs (in words)” value (S. aureus ATCC 13709 [1]) was “no impact”, the “Minimum inhibitory concentration, S. aureus ATCC 13709 + 50% Human Serum” value (S. aureus ATCC 13709 [1]) was 0.25 µg/mL and the “Minimum inhibitory concentration, S. aureus ATCC 13709 + 50% Mouse Serum” value (S. aureus ATCC 13709 [1]) was 0.25 µg/mL. For the same compound, the “Minimum inhibitory concentration, S. aureus ATCC 13709 + 50% Rat Serum” value (S. aureus ATCC 13709 [1]) was 0.25 µg/mL, the “Prophylactic effect (in words)” value [2] was “statistically significant” and the Measured bacterial titer [2, 9] was 3.01 ± 0.47 Log CFU/g of bone. The “Minimum inhibitory concentration, E. coli LBB925” value [3] was 32 µg/mL, the “Minimum inhibitory concentration, S. aureus ATCC 43300” value [4] was 0.25 µg/mL and the “Minimum inhibitory concentration, S. aureus ATCC 13709” value (S. aureus ATCC 13709 [5]) was 0.125 µg/mL. The “Minimum inhibitory concentration, S. aureus RN4220” value (S. aureus RN4220) was 0.25 µg/mL, the “Minimum inhibitory concentration, S. aureus BK85” value [6] was 0.25 µg/mL and the “Regeneration of parent drug once bound to bone (in words)” value [7] was “appreciable rates of regeneration”. For the same compound, the “% Conversion of bone-bound prodrug to parent drug” value (“% Conversion of bone-bound prodrug” for short) ([7]; 50% Human Serum) was 1.01%, the “% Conversion of bone-bound prodrug” value ([7]; 50% Rat Serum) was 1.01% and the “% Conversion of bone-bound prodrug” value ([7]; PBS) was 0.97%. For the same compound, the “Impact of the medium on the rate of regeneration of parent drug (in words)” value (“Impact of the medium” for short) [7] was “not significantly impacted”.
`CO[C@H]1/C=C/O[C@@]2(C)Oc3c(C)c(O)c4c(O)c(c(/C=N/N5CCN(CCO)CC5)c(O)c4c3C2=O)NC(=O)/C(C)=C\C=C\[C@H](C)[C@H](O)[C@@H](C)[C@@H](O)[C@@H](C)[C@H](OC(C)=O)[C@@H]1C` [Compound 9, 3-(((4-(2-hydroxyethyl)-1-piperazinyl)imino)methyl)rifamycin] gave an MIC (S. aureus ATCC 13709 [1]; read-out: Minimum inhibitory concentration, S. aureus ATCC 13709 + 50% Human Serum) of 0.062 µg/mL, an MIC (S. aureus ATCC 13709 [1]; read-out: Minimum inhibitory concentration, S. aureus ATCC 13709 + 50% Mouse Serum) of 0.062 µg/mL and an MIC (S. aureus ATCC 13709 [1]; read-out: Minimum inhibitory concentration, S. aureus ATCC 13709 + 50% Rat Serum) of 0.062 µg/mL. The Measured bacterial titer [2, 9] was 6.38 ± 0.90 Log CFU/g of bone, the MIC ([3]; Escherichia coli, read-out: Minimum inhibitory concentration, E. coli LBB925) was 16 µg/mL (≈ 18.8 µM) and the MIC ([4]; Staphylococcus aureus, read-out: Minimum inhibitory concentration, S. aureus ATCC 43300) was 0.016 µg/mL (≈ 0.0188 µM). It also gave an MIC (S. aureus ATCC 13709 [5]; Staphylococcus aureus, ATCC13709, read-out: Minimum inhibitory concentration, S. aureus ATCC 13709) of 0.016 µg/mL (≈ 0.0188 µM), an MIC (S. aureus RN4220; Staphylococcus aureus, RN4220, read-out: Minimum inhibitory concentration, S. aureus RN4220) of 0.016 µg/mL (≈ 0.0188 µM) and an MIC ([6]; Staphylococcus aureus, read-out: Minimum inhibitory concentration, S. aureus BK85) of 0.016 µg/mL (≈ 0.0188 µM).
For `CO[C@H]1/C=C/O[C@@]2(C)Oc3c(C)c(O)c4c(=O)c(c5oc6cc(N7CCN(CCOC(=O)CCC(=O)NC(P(=O)(O)O)P(=O)(O)O)CC7)cc(O)c6nc-5c4c3C2=O)NC(=O)/C(C)=C\C=C\[C@H](C)[C@H](O)[C@@H](C)[C@@H](O)[C@@H](C)[C@H](OC(C)=O)[C@@H]1C.N.N` [Compound 62], the “Minimum inhibitory concentration, S. aureus ATCC 13709 + 50% Human Serum” value (S. aureus ATCC 13709 [1]) was 0.032 µg/mL, the “Minimum inhibitory concentration, S. aureus ATCC 13709 + 50% Mouse Serum” value (S. aureus ATCC 13709 [1]) was 0.032 µg/mL and the “Minimum inhibitory concentration, S. aureus ATCC 13709 + 50% Rat Serum” value (S. aureus ATCC 13709 [1]) was 0.0156 µg/mL. The “Activity against the Rifampicin resistant variant of S. aureus ATCC13709 (in words)” value (from here on “Activity … (in words)”) [8] was “complete lack of activity”, the “Minimum inhibitory concentration, S. aureus ATCC 13709 variant” value [8] was >128 µg/mL and the “Prophylactic effect (in words)” value [2] was “statistically significant”. For the same compound, the Measured bacterial titer ([2]; single dose 20 mg/kg parent drug equivalent, 2 days prior to infection) was 1.98 ± 0.06 Log CFU/g of bone, the “Minimum inhibitory concentration, E. coli LBB925” value [3] was >128 µg/mL and the “Minimum inhibitory concentration, S. aureus ATCC 43300” value [4] was 0.0078 µg/mL. For the same compound, the “Minimum inhibitory concentration, S. aureus ATCC 13709” value (S. aureus ATCC 13709 [5]) was 0.0039 µg/mL, the “Antibacterial activity (in words, summary of Table 1)” value (from here on “Antibacterial activity”) (S. aureus ATCC 13709 [5]) was “very low MICs” and the “Minimum inhibitory concentration, S. aureus RN4220” value (S. aureus RN4220) was 0.0078 µg/mL. For the same compound, the “Minimum inhibitory concentration, S. aureus BK85” value [6] was 0.0078 µg/mL, the “Regeneration of parent drug once bound to bone (in words)” value [7] was “appreciable rates of regeneration” and the “% Conversion of bone-bound prodrug” value ([7]; 50% Human Serum) was 0.86%. The “% Conversion of bone-bound prodrug” value ([7]; 50% Rat Serum) was 0.91%, the “% Conversion of bone-bound prodrug” value ([7]; PBS) was 0.21% and the “Impact of the medium” value [7] was “significant acceleration”.
With `CO[C@H]1/C=C/O[C@@]2(C)Oc3c(C)c(O)c4c(=O)c(c5oc6cc(N7CCN(CCC(=O)c8ccc(OCCCC(P(=O)(O)O)P(=O)(O)O)cc8)CC7)cc(O)c6nc-5c4c3C2=O)NC(=O)/C(C)=C\C=C\[C@H](C)[C@H](O)[C@@H](C)[C@@H](O)[C@@H](C)[C@H](OC(C)=O)[C@@H]1C` [Compound 71] the “Minimum inhibitory concentration, S. aureus ATCC 13709 + 50% Human Serum” value (S. aureus ATCC 13709 [1]) was 0.032 µg/mL, the “Minimum inhibitory concentration, S. aureus ATCC 13709 + 50% Mouse Serum” value (S. aureus ATCC 13709 [1]) was 0.032 µg/mL and the “Minimum inhibitory concentration, S. aureus ATCC 13709 + 50% Rat Serum” value (S. aureus ATCC 13709 [1]) was 0.032 µg/mL. For the same compound, the “Activity … (in words)” value [8] was “complete lack of activity”, the “Minimum inhibitory concentration, S. aureus ATCC 13709 variant” value [8] was 128 µg/mL (≈ 102 µM) and the “Prophylactic effect (in words)” value [2] was “statistically significant”. For the same compound, the Measured bacterial titer ([2]; single dose 20 mg/kg parent drug equivalent, 3 days prior to infection) was 2.77 ± 1.00 Log CFU/g of bone, the “Minimum inhibitory concentration, E. coli LBB925” value [3] was >128 µg/mL and the “Minimum inhibitory concentration, S. aureus ATCC 43300” value [4] was 0.0019 µg/mL (≈ 0.00152 µM). For the same compound, the “Minimum inhibitory concentration, S. aureus ATCC 13709” value (S. aureus ATCC 13709 [5]) was 0.0019 µg/mL (≈ 0.00152 µM), the “Antibacterial activity” value (S. aureus ATCC 13709 [5]) was “very low MICs” and the “Minimum inhibitory concentration, S. aureus RN4220” value (S. aureus RN4220) was 0.0039 µg/mL (≈ 0.00312 µM). The “Minimum inhibitory concentration, S. aureus BK85” value [6] was 0.0019 µg/mL (≈ 0.00152 µM), the “% Conversion of bone-bound prodrug” value ([7]; 50% Human Serum) was 0.46% and the “% Conversion of bone-bound prodrug” value ([7]; 50% Rat Serum) was 0.38%. The “% Conversion of bone-bound prodrug” value ([7]; PBS) was 0.1% and the “Impact of the medium” value [7] was “significant acceleration”.
In the case of `CO[C@H]1/C=C/O[C@@]2(C)Oc3c(C)c(O)c4c(=O)c(c5oc6cc(N7CCN(CC(C)C)CC7)cc(O)c6nc-5c4c3C2=O)NC(=O)/C(C)=C\C=C\[C@H](C)[C@H](OC(=O)CCCOC(=O)CCC(=O)NC(P(=O)(O)O)P(=O)(O)O)[C@@H](C)[C@@H](O)[C@@H](C)[C@H](OC(C)=O)[C@@H]1C` [Compound 81, 21-O-(4-((3-(bisphosphonomethyl)carbamoyl)propanoyloxy)butanoyl)-1′,4-Didehydro-1-deoxy-1,4-dihydro-3′-hydroxy-5′-[4-(2-methylpropyl)-1-piperazinyl]-1-oxorifamycin VIII], the “Minimum inhibitory concentration, S. aureus ATCC 13709 + 50% Human Serum” value (S. aureus ATCC 13709 [1]) is reported as 0.125 µg/mL, the “Minimum inhibitory concentration, S. aureus ATCC 13709 + 50% Mouse Serum” value (S. aureus ATCC 13709 [1]) is reported as 0.0625 µg/mL and the “Minimum inhibitory concentration, S. aureus ATCC 13709 + 50% Rat Serum” value (S. aureus ATCC 13709 [1]) is reported as 0.03125 µg/mL. The “Activity … (in words)” value [8] was “complete lack of activity”, the “Minimum inhibitory concentration, S. aureus ATCC 13709 variant” value [8] was >128 µg/mL and the “Prophylactic effect (in words)” value [2] was “statistically significant”. The Measured bacterial titer ([2]; single dose 10 mg/kg parent drug equivalent, 3 days prior to infection) was 2.05 ± 0.06 Log CFU/g of bone, the “Minimum inhibitory concentration, E. coli LBB925” value [3] was >128 µg/mL and the “Minimum inhibitory concentration, S. aureus ATCC 43300” value [4] was 0.001 µg/mL (≈ 0.000769 µM). The “Minimum inhibitory concentration, S. aureus ATCC 13709” value (S. aureus ATCC 13709 [5]) was 0.001 µg/mL (≈ 0.000769 µM), the “Antibacterial activity” value (S. aureus ATCC 13709 [5]) was “very low MICs” and the “Minimum inhibitory concentration, S. aureus RN4220” value (S. aureus RN4220) was 0.001 µg/mL (≈ 0.000769 µM). The “Minimum inhibitory concentration, S. aureus BK85” value [6] was 0.001 µg/mL (≈ 0.000769 µM), the “% Conversion of bone-bound prodrug” value ([7]; 50% Rat Serum) was 2.50% and the “% Conversion of bone-bound prodrug” value ([7]; PBS) was 1.98%. The “Impact of the medium” value [7] was “not significantly impacted”.

Reference: patent US8404664B2, “Phosphonated Rifamycins and uses thereof for the prevention and treatment of bone and joint infections” (Targanta Therapeutics, Inc., priority 2005, dated 2013)
